Where a name gives a salt, the structure may show the parent alone.
System: anesthetized rats
Test: Anesthetized rat spirometry screening assay (ventilatory activity, minute volume)
Format: in vivo
Conditions: increase in minute volume (VE); for change in vivo at 0.3 mg/kg: 0.3 mg/kg IV bolus, read-out: VE % Inc @ 0.3 mg/kg IV; for change in vivo at 3 mg/kg: 3.0 mg/kg IV bolus, read-out: VE % Inc @ 3.0 mg/kg IV
Experimental: Anesthetized rats provide a quick method of screening compounds for respiratory and cardiovascular activity.
Rats were initially anesthetized with 3% isoflurane (inhaled) and femoral artery and vein cannulas were surgically inserted. Once cannulated, the rats were transitioned to urethane anesthesia (1.5 g/kg; i.v.) and a tracheal cut-down was performed. After placing the tracheal cannula, it was connected to a pneumotachometer to record respiratory airflow from which respiratory rate (RR), tidal volume (VT), and their product minute volume (MV, also termed VE) were derived. After the surgical preparation was complete, animals were allowed to stabilize for 30 minutes while respiratory rate, tidal volume, minute volume, blood pressure and heart rate were recorded continuously. Arterial blood gases (ABG) were obtained from arterial blood collected from the femoral artery. ABG measurements were taken before and 6 minutes after vehicle and each dose of compound administered. Compounds being screened were administered via bolus injections through the venous cannula followed by a saline flush (total time of administration is approximately 30 seconds), and the animal was monitored for at least 6 minutes for changes in cardiovascular efforts. Compounds were prepared in formulations identified to ensure optimal solubility. As such, vehicle controls were matched for the formulation of each compound tested. Dosing of the compounds being screened was conducted at 0.1 and/or 0.3 mg/kg and/or 3 mg/kg The next dose was not administered until all cardiovascular and respiratory measures had returned to baseline levels. The positive control compounds used were N-[4,6-di-(n-propylamino)-[1,3,5]triazin-2-yl]-N,O-dimethyl-hydroxylamine or N-[2,6-di-(n-propylamino)-[1,3]pyrimidin-4-yl]-N,O-dimethyl-hydroxylamine (both administered at the end of each screening experiment (0.3 mg/kg dose) to validate the experiment and also to serve as a measure with which the compound being screened could be compared.
Data were analyzed by collecting cardiovascular and respiratory data in 30 second averages (BINs). Data were plotted 2 minutes before challenge and then 6 minutes after challenge.

Row | SMILES | change in vivo at 0.3 mg/kg | change in vivo at 3 mg/kg
1 | CNc1nc(NCC2CC2)c2nc(NC)nc(NCCO)c2n1 [Compound 54a, 2-[8-(Cyclopropylmethyl-amino)-2,6-bis-methylamino-pyrimido[5,4-d]pyrimidin-4-ylamino]-ethanol Hydrochloride] | 165% | 
2 | C=C(C)CNc1nc(NCC)c2nc(NC[C@H](C)O)nc(NCC)c2n1 [Compound 175, (S)-1-[4,8-Bis-ethylamino-6-(2-methyl-allylamino)-pyrimido[5,4-d]-pyrimidin-2-ylamino]-propan-2-ol] | 75% | 134%
3 | CCCNc1nc(NC)c2nc(NC[C@H](C)O)nc(NC)c2n1 [Compound 113, (S)-1-(4,8-Bis-methylamino-6-propylamino-pyrimido[5,4-d]pyrimidin-2-ylamino)-propan-2-ol] | 111% | 190%
4 | CCCNc1nc(NC)c2nc(N[C@H]3CCCC[C@@H]3O)nc(NC)c2n1 [Compound 133, (1S,2S)-2-(4,8-Bis-methylamino-6-propylamino-pyrimido[5,4-d]pyrimidin-2-ylamino)-cyclohexanol] | 35% | 111%
5 | CNc1nc(NCC2CC2)nc2c(NC)nc(NCCO)nc12 [Compound 90, 2-[6-(Cyclopropylmethyl-amino)-4,8-bis-methylamino-pyrimido[5,4-d]pyrimidin-2-ylamino]-ethanol] | 26% | 
6 | CCCNc1nc(NCC)c2nc(NCCO)nc(NCC)c2n1 [Compound 162, 2-(4,8-Bis-ethylamino-6-propylamino-pyrimido[5,4-d]pyrimidin-2-ylamino)-ethanol] | 187% | 216%
7 | CNc1nc(NCC(C)(C)O)c2nc(NC)nc(NCC3CC3)c2n1 [Compound 46a, 1-[8-(Cyclopropylmethyl-amino)-2,6-bis-methylamino-pyrimido[5,4-d]pyrimidin-4-ylamino]-2-methyl-propan-2-ol Hydrochloride] | 79% | 203%
8 | CNc1nc(NCC(C)(C)O)c2nc(NC)nc(NCC(F)F)c2n1 [Compound 36a, 1-[8-(2,2-Difluoro-ethylamino)-2,6-bis-methylamino-pyrimido[5,4-d]pyrimidin-4-ylamino]-2-methyl-propan-2-ol Hydrochloride] | 34% | 
9 | CCCNc1nc(NC)nc2c(N[C@H]3CCC[C@@H]3O)nc(NC)nc12 [Compound 86, (1S,2S)-2-(2,6-Bis-methylamino-8-propylamino-pyrimido[5,4-d]pyrimidin-4-ylamino)-cyclopentanol] | 26% | 92%
10 | CCCNc1nc(NCC(F)F)nc2c(NCC(C)(C)O)nc(NCC(F)F)nc12 [Compound 33a, 1-[2,6-Bis-(2,2-difluoro-ethylamino)-8-propylamino-pyrimido[5,4-d]-pyrimidin-4-ylamino]-2-methyl-propan-2-ol Hydrochloride] | 23% | 115%
11 | CNc1nc(NCC(F)(F)F)c2nc(NC)nc(NCCO)c2n1 [Compound 62a, 2-[2,6-Bis-methylamino-8-(2,2,2-trifluoro-ethylamino)-pyrimido[5,4-d]pyrimidin-4-ylamino]-ethanol Hydrochloride] | 40% | 
12 | CCCNc1nc(NC)c2nc(NC[C@@H](C)O)nc(NC)c2n1 [Compound 115, (R)-1-(4,8-Bis-methylamino-6-propylamino-pyrimido[5,4-d]pyrimidin-2-ylamino)-propan-2-ol] | 60% | 151%
13 | CCCNc1nc(NC)nc2c(N[C@@H]3CCCC[C@H]3O)nc(NC)nc12 [Compound 85, (1R,2R)-2-(2,6-Bis-methylamino-8-propylamino-pyrimido[5,4-d]pyrimidin-4-ylamino)-cyclohexanol] | 69% | 83%
14 | CCCNc1nc(NC)c2nc(N[C@@H]3CCCC[C@@H]3O)nc(NC)c2n1 [Compound 135, (1S,2R)-2-(4,8-Bis-methylamino-6-propylamino-pyrimido[5,4-d]pyrimidin-2-ylamino)-cyclohexanol] | 22% | 142%
15 | CCCNc1nc(NC)c2nc(N[C@H]3c4ccccc4C[C@@H]3O)nc(NC)c2n1 [Compound 125, (1S,2S)-1-(4,8-Bis-methylamino-6-propylamino-pyrimido[5,4-d]-pyrimidin-2-ylamino)-indan-2-ol] | 38% | 84%
16 | CNc1nc(NC[C@H](C)O)nc2c(NC)nc(NCC3CC3)nc12 [Compound 142, (S)-1-[6-(Cyclopropylmethyl-amino)-4,8-bis-methylamino-pyrimido[5,4-d]pyrimidin-2-ylamino]-propan-2-ol] | 2% | 62%
17 | CCCNc1nc(NC)c2nc(N[C@H]3CCC[C@@H]3O)nc(NC)c2n1 [Compound 139, (1S,2S)-2-(4,8-Bis-methylamino-6-propylamino-pyrimido[5,4-d]pyrimidin-2-ylamino)-cyclopentanol] | 90% | 114%
18 | CCCNc1nc(NC)nc2c(N(C)CC(C)O)nc(NC)nc12 (centres unmarked) [Compound 73a, 1-[(2,6-Bis-methylamino-8-propylamino-pyrimido[5,4-d]-pyrimidin-4-yl)-methyl-amino]-propan-2-ol Hydrochloride] | 16% | 79%
19 | CCNc1nc(NC)c2nc(NCC(O)CC)nc(NC)c2n1 (centres unmarked) [Compound 147, 1-(6-Ethylamino-4,8-bis-methylamino-pyrimido[5,4-d]pyrimidin-2-ylamino)-butan-2-ol] | 31% | 147%
20 | CCCNc1nc(NC)nc2c(N[C@@H](C)CO)nc(NC)nc12 [Compound 18a, (S)-2-(2,6-Bis-methylamino-8-propylamino-pyrimido[5,4-d]-pyrimidin-4-ylamino)-propan-1-ol Hydrochloride] | 50% | 
21 | CNc1nc(NC[C@@H](C)O)nc2c(NC)nc(N)nc12 [Compound 151, (R)-1-(6-Amino-4,8-bis-methylamino-pyrimido[5,4-d]-pyrimidin-2-ylamino)-propan-2-ol] | 0% | 95%
22 | CCCNc1nc(NCC)nc2c(NCC(C)(C)O)nc(NCC)nc12 [Compound 32a, 1-(2,6-Bis-ethylamino-8-propylamino-pyrimido[5,4-d]-pyrimidin-4-ylamino)-2-methyl-propan-2-ol hydrochloride] | 201% | 
23 | CCCNc1nc(NC)c2nc(NCC(C)(C)O)nc(NC)c2n1 [Compound 94, 1-(4,8-Bis-methylamino-6-propylamino-pyrimido[5,4-d]pyrimidin-2-ylamino)-2-methyl-propan-2-ol] | 18% | 130%
24 | C=C(C)CNc1nc(NC)c2nc(NC[C@H](C)O)nc(NC)c2n1 [Compound 159, (S)-1-[6-(2-Methyl-allylamino)-4,8-bis-methylamino-pyrimido[5,4-d]-pyrimidin-2-ylamino]-propan-2-ol] | 61% | 160%
25 | CC[C@H](C)Nc1nc(NC)c2nc(NC[C@@H](C)O)nc(NC)c2n1 [Compound 104, (R)-1-[6-((S)-sec-Butylamino)-4,8-bis-methylamino-pyrimido[5,4-d]pyrimidin-2-ylamino]-propan-2-ol] | 33% | 98%
26 | C=CCNc1nc(NC)c2nc(N(CCC)C[C@H](C)O)nc(NC)c2n1 [Compound 155, (S)-1-[(6-Allylamino-4,8-bis-methylamino-pyrimido[5,4-d]-pyrimidin-2-yl)-propyl-amino]-propan-2-ol] | 14% | 79%
27 | CCCNc1nc(NC)c2nc(N[C@@H]3CCC[C@H]3O)nc(NC)c2n1 [Compound 141, (1R,2R)-2-(4,8-Bis-methylamino-6-propylamino-pyrimido[5,4-d]pyrimidin-2-ylamino)-cyclopentanol] | 71% | 146%
28 | CC[C@@H](C)Nc1nc(NC)c2nc(NCC(C)(C)O)nc(NC)c2n1 [Compound 99, 1-[6-((R)-sec-Butylamino)-4,8-bis-methylamino-pyrimido[5,4-d]-pyrimidin-2-ylamino]-2-methyl-propan-2-ol] | 25% | 61%
29 | CCNc1nc(NCC(C)(C)O)c2nc(NCC)nc(NCC)c2n1 [Compound 49a, 2-Methyl-1-(2,6,8-tris-ethylamino-pyrimido[5,4-d]-pyrimidin-4-ylamino)-propan-2-ol Hydrochloride] | 127% | 183%
30 | CCCNc1nc(NCC(F)(F)F)nc2c(NCCO)nc(NCC(F)(F)F)nc12 [Compound 28a, 2-[8-propylamino-2,6-bis-(2,2,2-trifluoroethylamino)-pyrimido[5,4-d]pyrimidin-4-ylamino]ethanol hydrochloride] | 16% | 
